ChEMBL document CHEMBL4630901 (2021)
One block for each compound: values may come before it. Active and inactive are the calls of the source. The rule behind the calls is not given here.

Columns and labels:
[1] = molecular target: Sodium-dependent noradrenaline transporter (Homo sapiens) (UniProt P23975); details: Compound concentration 10.0 uM
[2] = molecular target: Prostaglandin F2-alpha receptor (Homo sapiens, UniProt P43088); assay: Bayer inhouse assay (human)
[3] = molecular target: Estrogen receptor (Homo sapiens) (UniProt P03372); details: Compound concentration 10.0 uM
Sequence of Estrogen receptor (Homo sapiens) (P03372 whole entry): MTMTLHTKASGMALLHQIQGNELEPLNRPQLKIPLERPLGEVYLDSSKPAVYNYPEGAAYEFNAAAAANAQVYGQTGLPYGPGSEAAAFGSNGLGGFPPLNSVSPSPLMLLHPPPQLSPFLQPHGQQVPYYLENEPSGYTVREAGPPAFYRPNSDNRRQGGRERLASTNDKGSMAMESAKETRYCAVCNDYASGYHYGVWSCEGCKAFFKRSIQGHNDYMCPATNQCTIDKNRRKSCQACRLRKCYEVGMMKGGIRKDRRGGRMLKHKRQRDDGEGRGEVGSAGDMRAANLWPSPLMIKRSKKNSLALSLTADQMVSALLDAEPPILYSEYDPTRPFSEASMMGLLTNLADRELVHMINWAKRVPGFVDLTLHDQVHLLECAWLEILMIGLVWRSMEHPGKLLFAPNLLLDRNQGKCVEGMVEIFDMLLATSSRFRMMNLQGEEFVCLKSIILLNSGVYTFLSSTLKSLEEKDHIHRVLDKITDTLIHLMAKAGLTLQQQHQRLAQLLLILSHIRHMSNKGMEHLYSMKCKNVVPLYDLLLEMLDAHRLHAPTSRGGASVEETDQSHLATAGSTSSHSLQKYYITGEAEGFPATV

Oryctolagus cuniculus = species: Oryctolagus cuniculus; assay: Inhibition of Purinergic P2X at 10 µM in the Eurofins-Panlabs radioligand binding assay (Eurofins_assay_268700); assay type: protein assay; details: Compound concentration 10.0 uM
[4] = molecular target: T1, 5-hydroxytryptamine receptor 2C (Homo sapiens) (UniProt P28335); details: Compound concentration 10.0 uM
T1 sequence (whole entry): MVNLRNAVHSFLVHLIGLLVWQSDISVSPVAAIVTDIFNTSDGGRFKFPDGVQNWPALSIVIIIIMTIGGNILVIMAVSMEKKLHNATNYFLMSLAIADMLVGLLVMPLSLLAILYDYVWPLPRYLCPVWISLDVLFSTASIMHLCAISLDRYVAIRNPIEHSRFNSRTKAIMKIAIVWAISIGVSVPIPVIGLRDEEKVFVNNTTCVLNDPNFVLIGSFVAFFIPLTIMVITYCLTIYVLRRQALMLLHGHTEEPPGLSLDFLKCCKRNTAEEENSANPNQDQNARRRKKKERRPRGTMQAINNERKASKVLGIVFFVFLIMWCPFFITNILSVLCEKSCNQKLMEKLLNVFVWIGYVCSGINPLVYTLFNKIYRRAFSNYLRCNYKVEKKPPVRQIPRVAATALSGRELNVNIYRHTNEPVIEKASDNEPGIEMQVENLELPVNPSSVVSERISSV

[5] = molecular target: D(2) dopamine receptor (Homo sapiens) (UniProt P14416); details: Compound concentration 10.0 uM
Sequence of D(2) dopamine receptor (Homo sapiens) (P14416 whole entry): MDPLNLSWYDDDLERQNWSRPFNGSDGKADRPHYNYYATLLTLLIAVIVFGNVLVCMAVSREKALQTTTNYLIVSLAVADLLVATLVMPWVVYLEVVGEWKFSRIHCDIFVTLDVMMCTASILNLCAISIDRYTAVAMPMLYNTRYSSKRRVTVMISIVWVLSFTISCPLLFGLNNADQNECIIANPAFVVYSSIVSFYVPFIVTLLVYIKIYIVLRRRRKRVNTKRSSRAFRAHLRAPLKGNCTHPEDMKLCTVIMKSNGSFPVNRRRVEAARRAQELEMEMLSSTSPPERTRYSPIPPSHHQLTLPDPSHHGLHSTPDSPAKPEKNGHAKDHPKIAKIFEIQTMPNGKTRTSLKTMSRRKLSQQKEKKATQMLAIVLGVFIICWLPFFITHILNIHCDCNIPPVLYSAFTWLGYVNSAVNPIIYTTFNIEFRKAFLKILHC

[6] = molecular target: GABA-A receptor; anion channel (Rattus norvegicus) (UniProt O09028+P15431+P18506+P18508+P19969+P20236+P23574+P23576+P28471+P28473+P30191+P62813+P63079+P63138+Q91ZM7+Q9ES14); details: Compound concentration 10.0 uM
[7] = molecular target: T2, Prostaglandin D2 receptor 2 (Homo sapiens) (UniProt Q9Y5Y4); assay: Prostanoid CRTH2 Eurofins-Panlabs radioligand binding assay; design: ligand concentration 1 nM
T2 sequence (whole entry): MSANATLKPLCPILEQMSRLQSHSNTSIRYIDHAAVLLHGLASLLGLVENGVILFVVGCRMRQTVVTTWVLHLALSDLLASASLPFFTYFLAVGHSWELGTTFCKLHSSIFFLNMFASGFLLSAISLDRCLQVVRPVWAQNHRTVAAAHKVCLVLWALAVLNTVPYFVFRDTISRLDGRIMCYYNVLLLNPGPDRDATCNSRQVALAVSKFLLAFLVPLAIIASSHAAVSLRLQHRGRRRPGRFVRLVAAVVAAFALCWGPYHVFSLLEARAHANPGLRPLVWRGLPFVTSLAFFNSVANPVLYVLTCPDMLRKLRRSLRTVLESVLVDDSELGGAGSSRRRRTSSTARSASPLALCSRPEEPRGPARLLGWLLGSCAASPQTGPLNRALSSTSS

[8] = molecular target: T3, Prostaglandin E2 receptor EP3 subtype (Homo sapiens) (UniProt P43115); assay: Prostanoid EP3 Eurofins-Panlabs radioligand binding assay; design: ligand concentration 0.5 nM
T3 sequence (whole entry): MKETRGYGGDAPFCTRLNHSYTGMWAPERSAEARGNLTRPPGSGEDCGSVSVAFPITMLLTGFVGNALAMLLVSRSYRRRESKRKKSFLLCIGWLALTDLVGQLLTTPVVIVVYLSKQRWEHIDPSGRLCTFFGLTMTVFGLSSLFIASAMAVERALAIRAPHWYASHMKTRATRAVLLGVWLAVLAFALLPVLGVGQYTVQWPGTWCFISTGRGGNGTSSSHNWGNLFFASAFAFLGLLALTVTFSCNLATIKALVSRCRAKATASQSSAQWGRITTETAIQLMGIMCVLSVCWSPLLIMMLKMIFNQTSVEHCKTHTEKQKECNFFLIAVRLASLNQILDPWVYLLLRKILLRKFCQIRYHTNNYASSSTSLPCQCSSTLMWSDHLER

[9] = molecular target: Growth hormone secretagogue receptor type 1 (Homo sapiens) (UniProt Q92847); details: Compound concentration 10.0 uM
Sequence of Growth hormone secretagogue receptor type 1 (Homo sapiens) (Q92847 whole entry): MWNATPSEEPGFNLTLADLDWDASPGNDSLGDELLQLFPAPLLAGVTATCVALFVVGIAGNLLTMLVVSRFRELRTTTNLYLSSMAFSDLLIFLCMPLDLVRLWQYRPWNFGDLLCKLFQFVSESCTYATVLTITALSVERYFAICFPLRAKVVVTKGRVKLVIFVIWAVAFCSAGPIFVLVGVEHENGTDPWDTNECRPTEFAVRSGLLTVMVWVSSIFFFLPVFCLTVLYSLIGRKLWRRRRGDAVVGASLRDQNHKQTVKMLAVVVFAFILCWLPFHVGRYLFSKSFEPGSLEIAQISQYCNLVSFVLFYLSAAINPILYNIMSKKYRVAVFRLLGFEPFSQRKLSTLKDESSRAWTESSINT

[10] = molecular target: T4, Prostaglandin E2 receptor EP1 subtype (Homo sapiens) (UniProt P34995); assay: Prostanoid EP1 Eurofins-Panlabs radioligand binding assay; design: ligand concentration 1 nM
T4 sequence (whole entry): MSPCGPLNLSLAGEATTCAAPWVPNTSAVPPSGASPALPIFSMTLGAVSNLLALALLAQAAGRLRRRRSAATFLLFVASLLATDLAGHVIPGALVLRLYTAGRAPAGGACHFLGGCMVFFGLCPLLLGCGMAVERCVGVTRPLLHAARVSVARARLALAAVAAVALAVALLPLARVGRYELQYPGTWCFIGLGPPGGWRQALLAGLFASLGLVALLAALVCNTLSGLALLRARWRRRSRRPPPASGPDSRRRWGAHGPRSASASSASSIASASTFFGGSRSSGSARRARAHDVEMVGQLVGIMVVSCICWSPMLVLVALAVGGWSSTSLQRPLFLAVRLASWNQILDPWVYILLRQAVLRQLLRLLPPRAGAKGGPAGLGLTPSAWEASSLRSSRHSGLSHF

[11] = molecular target: Beta-1 adrenergic receptor (Homo sapiens) (UniProt P08588); details: Compound concentration 10.0 uM
Sequence of Beta-1 adrenergic receptor (Homo sapiens) (P08588 whole entry, looked up): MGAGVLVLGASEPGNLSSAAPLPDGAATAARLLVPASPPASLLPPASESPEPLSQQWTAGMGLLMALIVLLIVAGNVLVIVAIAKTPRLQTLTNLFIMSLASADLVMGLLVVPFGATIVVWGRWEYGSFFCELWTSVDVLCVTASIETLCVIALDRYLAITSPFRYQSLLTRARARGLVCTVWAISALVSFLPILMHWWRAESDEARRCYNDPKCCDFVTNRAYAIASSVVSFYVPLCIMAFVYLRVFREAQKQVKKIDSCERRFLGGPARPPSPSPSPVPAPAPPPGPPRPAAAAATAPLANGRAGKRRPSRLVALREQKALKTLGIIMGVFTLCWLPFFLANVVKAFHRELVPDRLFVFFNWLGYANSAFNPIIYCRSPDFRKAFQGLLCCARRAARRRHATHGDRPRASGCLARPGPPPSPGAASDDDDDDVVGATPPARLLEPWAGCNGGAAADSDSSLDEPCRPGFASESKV

[12] = molecular target: D(3) dopamine receptor (Homo sapiens) (UniProt P35462); details: Compound concentration 10.0 uM
Sequence of D(3) dopamine receptor (Homo sapiens) (P35462 whole entry): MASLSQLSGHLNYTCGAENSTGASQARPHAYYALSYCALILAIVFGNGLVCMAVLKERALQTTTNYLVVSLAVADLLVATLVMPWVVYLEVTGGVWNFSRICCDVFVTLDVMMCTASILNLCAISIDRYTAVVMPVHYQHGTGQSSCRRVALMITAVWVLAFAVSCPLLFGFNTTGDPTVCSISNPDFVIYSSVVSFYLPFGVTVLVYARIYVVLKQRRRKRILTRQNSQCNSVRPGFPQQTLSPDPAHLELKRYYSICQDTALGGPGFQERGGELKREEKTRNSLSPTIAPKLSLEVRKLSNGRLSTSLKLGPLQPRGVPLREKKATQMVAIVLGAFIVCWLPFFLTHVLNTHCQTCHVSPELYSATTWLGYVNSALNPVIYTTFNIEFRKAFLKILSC

[13] = molecular target: Mu-type opioid receptor (Homo sapiens) (UniProt P35372); details: Compound concentration 10.0 uM
Sequence of Mu-type opioid receptor (Homo sapiens) (P35372 whole entry): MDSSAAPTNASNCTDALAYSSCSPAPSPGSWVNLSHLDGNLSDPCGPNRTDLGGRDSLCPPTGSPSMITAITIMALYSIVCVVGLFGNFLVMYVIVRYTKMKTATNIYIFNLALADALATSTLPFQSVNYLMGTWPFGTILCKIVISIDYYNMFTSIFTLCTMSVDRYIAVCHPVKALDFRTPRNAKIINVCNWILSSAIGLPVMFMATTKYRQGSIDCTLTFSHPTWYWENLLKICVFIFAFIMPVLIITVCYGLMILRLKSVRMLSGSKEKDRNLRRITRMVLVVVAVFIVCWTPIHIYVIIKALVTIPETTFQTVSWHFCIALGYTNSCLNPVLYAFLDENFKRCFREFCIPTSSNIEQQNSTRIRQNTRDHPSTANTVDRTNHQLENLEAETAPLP

[14] = molecular target: Androgen receptor (Homo sapiens) (UniProt P10275); details: Compound concentration 10.0 uM
Sequence of Androgen receptor (Homo sapiens) (P10275 whole entry): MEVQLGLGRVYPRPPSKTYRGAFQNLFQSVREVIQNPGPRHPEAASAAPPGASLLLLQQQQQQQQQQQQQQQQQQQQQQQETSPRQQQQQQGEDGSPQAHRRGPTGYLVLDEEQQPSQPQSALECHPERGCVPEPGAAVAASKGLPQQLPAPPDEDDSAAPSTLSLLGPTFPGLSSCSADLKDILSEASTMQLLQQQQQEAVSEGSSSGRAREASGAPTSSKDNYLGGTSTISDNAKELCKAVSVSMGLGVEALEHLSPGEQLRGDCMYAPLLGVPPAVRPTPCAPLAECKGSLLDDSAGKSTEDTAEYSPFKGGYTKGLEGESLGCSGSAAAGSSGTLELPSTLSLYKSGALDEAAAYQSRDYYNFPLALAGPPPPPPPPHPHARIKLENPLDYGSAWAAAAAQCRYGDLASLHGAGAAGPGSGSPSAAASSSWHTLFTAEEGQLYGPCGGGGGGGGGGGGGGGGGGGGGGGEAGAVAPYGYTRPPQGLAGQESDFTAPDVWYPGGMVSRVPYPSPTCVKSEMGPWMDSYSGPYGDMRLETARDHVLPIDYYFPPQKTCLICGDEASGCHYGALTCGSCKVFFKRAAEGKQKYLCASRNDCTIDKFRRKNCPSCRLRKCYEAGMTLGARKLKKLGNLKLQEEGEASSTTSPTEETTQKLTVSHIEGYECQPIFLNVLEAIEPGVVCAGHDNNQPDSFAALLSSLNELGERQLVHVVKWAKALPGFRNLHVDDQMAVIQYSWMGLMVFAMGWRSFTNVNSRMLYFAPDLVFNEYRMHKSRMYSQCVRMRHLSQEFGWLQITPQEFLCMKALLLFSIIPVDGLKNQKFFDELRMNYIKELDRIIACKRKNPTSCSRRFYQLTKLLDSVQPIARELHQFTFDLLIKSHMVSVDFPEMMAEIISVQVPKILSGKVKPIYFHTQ

[15] = molecular target: Endothelin-1 receptor (Homo sapiens) (UniProt P25101); details: Compound concentration 10.0 uM
Sequence of Endothelin-1 receptor (Homo sapiens) (P25101 whole entry): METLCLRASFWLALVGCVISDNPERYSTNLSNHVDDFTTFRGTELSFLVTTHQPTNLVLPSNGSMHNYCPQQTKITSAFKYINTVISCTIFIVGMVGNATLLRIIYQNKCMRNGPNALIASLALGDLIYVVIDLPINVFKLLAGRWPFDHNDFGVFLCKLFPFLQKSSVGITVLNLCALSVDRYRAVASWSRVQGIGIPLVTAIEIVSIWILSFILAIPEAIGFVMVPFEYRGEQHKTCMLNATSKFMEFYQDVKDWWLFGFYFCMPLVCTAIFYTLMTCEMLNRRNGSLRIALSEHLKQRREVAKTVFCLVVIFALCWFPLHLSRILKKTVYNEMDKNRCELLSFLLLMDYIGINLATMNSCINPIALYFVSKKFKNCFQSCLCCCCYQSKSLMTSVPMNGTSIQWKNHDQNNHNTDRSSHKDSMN

[16] = molecular target: Prostaglandin E2 receptor EP2 subtype (Homo sapiens) (UniProt P43116); assay: Prostanoid EP2 Eurofins-Panlabs radioligand binding assay; design: ligand concentration 4 nM
Sequence of Prostaglandin E2 receptor EP2 subtype (Homo sapiens) (P43116 whole entry): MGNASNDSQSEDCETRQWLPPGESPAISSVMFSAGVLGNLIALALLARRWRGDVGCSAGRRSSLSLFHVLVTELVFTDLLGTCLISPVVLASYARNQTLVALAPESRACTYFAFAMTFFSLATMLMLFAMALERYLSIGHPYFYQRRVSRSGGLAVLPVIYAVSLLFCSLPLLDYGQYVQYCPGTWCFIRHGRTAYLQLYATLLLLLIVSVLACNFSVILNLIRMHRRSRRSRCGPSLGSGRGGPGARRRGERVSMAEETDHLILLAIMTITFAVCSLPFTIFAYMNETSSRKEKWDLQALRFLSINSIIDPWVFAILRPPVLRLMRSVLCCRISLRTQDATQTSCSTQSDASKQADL

[17] = molecular target: Prostaglandin F2-alpha receptor (Mus musculus, UniProt P43117); assay: Bayer inhouse assay (mouse)
Sequence of Prostaglandin F2-alpha receptor (Mus musculus, UniProt P43117) (P43117 whole entry): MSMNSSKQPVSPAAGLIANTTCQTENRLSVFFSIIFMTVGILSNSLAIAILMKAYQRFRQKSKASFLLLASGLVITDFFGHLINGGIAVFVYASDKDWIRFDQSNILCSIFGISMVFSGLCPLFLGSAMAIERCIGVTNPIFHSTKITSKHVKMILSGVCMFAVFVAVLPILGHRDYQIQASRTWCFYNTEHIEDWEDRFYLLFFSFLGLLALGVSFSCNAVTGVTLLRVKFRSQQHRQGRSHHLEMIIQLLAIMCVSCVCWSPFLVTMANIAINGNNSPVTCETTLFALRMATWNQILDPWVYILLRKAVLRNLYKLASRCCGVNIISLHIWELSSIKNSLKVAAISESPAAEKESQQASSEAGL

[18] = Compound concentration 0.001 uM

inhibition [1]: 14.1% | IC50 [2]: 1200 nM (not active)
Compound: Cc1c(N2CCNCC2)nc2ccc(Br)cc2c1C(=O)NC[C@H](CCC(=O)O)c1ccccc1Cl [BAY-403]

Compound: Cc1c(N2CCCC2)nc2ccc(Br)cc2c1C(=O)NC[C@H](CCC(=O)O)c1ccccc1Cl [BAY-6672]
inhibition [3]: 1% | inhibition (Oryctolagus cuniculus): 25% | inhibition [4]: 16% | inhibition [5]: 3% | inhibition [6]: 6% | inhibition [7, 18]: 3% | inhibition ([7]; Compound concentration 0.01 uM): 2% | inhibition ([7]; Compound concentration 0.1 uM): -3% | inhibition ([7]; Compound concentration 1.0 uM): -6% | inhibition ([7]; Compound concentration 10.0 uM): 19% | inhibition [8, 18]: 7% | inhibition ([8]; Compound concentration 0.01 uM): 2% | inhibition ([8]; Compound concentration 0.1 uM): 17% | inhibition ([8]; Compound concentration 1.0 uM): 10% | inhibition ([8]; Compound concentration 10.0 uM): 15% | inhibition [9]: 3% | inhibition [10, 18]: 11% | inhibition ([10]; Compound concentration 0.01 uM): -2% | inhibition ([10]; Compound concentration 0.1 uM): 1% | inhibition ([10]; Compound concentration 1.0 uM): -5% | inhibition ([10]; Compound concentration 10.0 uM): 22% | inhibition [11]: 3% | inhibition [12]: 10% | inhibition [13]: 21% | inhibition [14]: 3% | inhibition [15]: -1% | inhibition [16, 18]: 4% | inhibition ([16]; Compound concentration 0.01 uM): -2% | inhibition ([16]; Compound concentration 0.1 uM): 3% | inhibition ([16]; Compound concentration 1.0 uM): 15% | inhibition ([16]; Compound concentration 10.0 uM): 4% | IC50 [17]: 5 nM (active)
